Values joined by “and” are separate entries in the source; they are usually repeats but may differ in a detail not shown here. Identical values can stand only once. Like-named read-outs stand apart in the source and are kept apart here.

Data on 5 compounds can be found in paper PMC2841397 (Xenobiotica; the fate of foreign compounds in biological …, 2010).

For data set [1] the following is noted: rat; ref Koster et al. 1985, 1986; Hildebrandt et al. 1994; cited from earlier work.
The conditions of data set [2]: racemic-Fen 2 mg kg^-1 intravenous, male Wistar rats; ref Koster et al. 1985; cited from earlier work.
The next data set relates to cardiomyocytes. As to conditions: ref Beigi et al. 2006, Jóźwiak et al. 2007, cited from earlier work; for maximum contractile response: cardiomyocyte model, Woo et al. 2009.
The subject of a further data set is isolated rat enterocytes. The settings on record: ref Koster et al. 1986, cited from earlier work.
A further data set relates to isolated rat hepatocytes. As to conditions: ref Koster et al. 1986, cited from earlier work.
Data set [3] can be described thus: Urinary excretion after intravenous administration to rats. In kind it is in vivo, rat.
Data set [4] in a line: Urinary excretion after oral administration to rats. The data set is classed as in vivo, rat.
In data set [5] the test system is β2-AR coupled GS signaling. As to conditions: ref Woo et al. 2009; cited from earlier work.
Experiment in data set [6]: not given
This is another data set of the same source.

For data set [7] the following is noted: Mean (CV%).
Setting [8] is: intravenous 5 mg kg^-1, n=5, mean.
Where [9] appears, read: model parameter, iv 5 and oral 25 mg kg^-1.

Turning to `CC(Cc1ccc(O)cc1)NCC(O)c1cc(O)cc(O)c1` (stereo not drawn) [Fen, 5-[1-hydroxy-2-[[2-(4-hydroxyphenyl)-1-methylethyl]-amino]-ethyl]-1,3-benzenediol], in data set [1], the “bioavailability after oral administration” value is “less than 1%”. Moreover, in [2], the Vss was 1.3 L/kg; the clearance (as a rule, the rate of elimination divided by the concentration) is 72.8 mL/min/kg; the k10 is 0.197 min⁻¹.

With `COc1ccc(CC(C)NCC(O)c2cc(O)cc(O)c2)cc1` [(R,R)-MFen, (R,R)-methoxyfenoterol], the maximum contractile response entry in the data set on cardiomyocytes is given as “significant increase”.

Take `C[C@H](Cc1ccc(O[C@@H]2O[C@H](C(=O)O)[C@@H](O)[C@H](O)[C@H]2O)cc1)NC[C@H](O)c1cc(O)cc(O)c1` [(R,R)-Fen-PG]: the “observed fraction of (R,R)-Fen-PG formation” value is on record as 0.52 ± 0.01 with isolated rat enterocytes (enterocytes) and 0.28 ± 0.01 with isolated rat hepatocytes (hepatocytes).

On to `CC(Cc1ccc(O)cc1)NCC(O)c1cc(O)cc(O)c1` [(S,S)-Fen], for which the maximum contractile response result with cardiomyocytes was “no observed effect”.

On to `CC(Cc1ccc(O)cc1)NCC(O)c1cc(O)cc(O)c1` [(R,R)-Fen, (R,R)-Fenoterol], for which the “Dose (%) excreted into urine” value was 2.24% and 7.75% in data set [3] (after intravenous (R,R)-Fen 5 mg kg^-1, 0-6 h, individual animals); 1.70 ± 1.77% in [3] (after intravenous (R,R)-Fen 5 mg kg^-1, 6-24 h); 1.43 ± 0.21% in data set [3] (after intravenous (R,R)-MFen 5 mg kg^-1, 0-6 h); 0.17 ± 0.05% in [3] (after intravenous (R,R)-MFen 5 mg kg^-1, 6-24 h); 0.17% in data set [4] (after oral (R,R)-Fen 25 mg kg^-1, 0-6 h, one animal); 0.16 ± 0.12% in data set [4] (after oral (R,R)-Fen 25 mg kg^-1, 6-24 h). Moreover, the “Dose (%) excreted into urine” value in [4] (after oral (R,R)-MFen 25 mg kg^-1, 0-6 h, individual animals) is 0.05% and 0.04%; in [4] (after oral (R,R)-MFen 25 mg kg^-1, 6-24 h) it was 0.02 ± 0.01%. The figures for the “dose excreted in the cumulative 24-h urine collection” value in [3] (after intravenous administration of (R,R)-Fen) and in data set [4] (after oral administration of (R,R)-Fen) were “about 7%” and “less than 1%”, respectively. Further, the “administered dose excreted, 24-h cumulative urinary excretion” value in data set [3] (after intravenous administration of (R,R)-MFen) is “about 2%”. The Cmax (commonly the highest concentration seen after dosing) by setting is: (oral 25 mg kg^-1) 6.9 ± 0.3 nM; (oral 25 mg kg^-1, mean) 2.1 ng/mL. The Tmax (usually the time at which the peak concentration occurs) (oral 25 mg kg^-1) amounted to 2 h and the Tmax in data set [6] (intravenous 5 mg kg^-1, n=5) is recorded as 5.0 min. Besides, the AUC0-inf. (oral 25 mg kg^-1, mean) is 692 ng·min/mL and 691.7 ng·min/mL; the AUC0-inf. in data set [6] (setting [8]) stood at 36200 ng·min/mL. For the same compound, the T1/2λz (oral 25 mg kg^-1, mean) stood at 2.808 h; the T1/2λz in data set [6] (setting [8]) was 1.815 h; the T1/2λz in [7] (calculated from model parameters, equations (7) and (8)) is given as 96.4 (12%) min. The “net exposure (AUC)” value (oral administration 25 mg kg^-1) was found to be 2.3 nmol·min/mL. Moreover, in the data set with cardiomyocytes, the maximum contractile response result was “significant increase”. For the same compound, the “EC50 in the cardiomyocyte model” value in the data set with cardiomyocytes is “reduced”. Further, in data set [4] (after oral administration of (R,R)-MFen), the “administered dose excreted, cumulative urine” value is listed as “Trace amounts”. Besides, the “β2-AR coupled GS signaling” value in [5] was “selectively activates”. In addition, the C0 in [6] (setting [8]) worked out at 2237 ng/mL. Also, the Cl in data set [6] (setting [8]) was 146 mL/min/kg and 145.7 mL/min/kg. Further, the VSS in [6] (setting [8]) worked out at 8.2 L/kg. The “area under the curve (AUC)” value in [6] (intravenous administration) was found to be 119 nmol·min/mL. Besides, in data set [7] (calculated from model parameters, equation (5)), the CL is on record as 170 (8%) ml min^-1kg^-1. The Vss in [7] (calculated from model parameters, equation (6)) is listed as 11.6 (15%) l kg^-1. The Vc in data set [7] (model parameter) is 3.94 (20%) l kg^-1. The ka1 in data set [7] (model parameter) is listed as 0.004 (39%) min^-1. The ka2 in data set [7] (model parameter) is on record as 0.167 (79%) min^-1. Further, the k10 in [7] (setting [9]) was 0.043 min^-1 and 0.043 (15%) min^-1. Besides, the k12 in data set [7] (setting [9]) is 0.023 (26%) min^-1. Besides, the k21 in data set [7] (setting [9]) was 0.012 (18%) min^-1. Also, in data set [7] (model parameter, systemic bioavailability), the F is given as 0.473 (25%). Besides, the “Clint, conversion to (R,R)-Fen-PG” value in the data set on isolated rat enterocytes (isolated rat enterocytes) is 0.00079 ± 0.0002 mL/min/kg; with isolated rat hepatocytes (isolated rat hepatocytes) it was 0.00148 ± 0.00032 mL/min/kg.
